Results: US8748482B2, “Lubiprostone crystal, the use and the method for the preparation thereof” (Shanghai Techwell Biopharmaceutical Co., Ltd, priority 2008, dated 2014)

Experiment: Comparison of the stability: samples sealed and placed at 40° C. for 7 days, then impurities analysed
Assay type: physicochemical
Conditions: for Initial Product Amount: before storage (initial); for Product Amount (after 7 days at 40° C.): sealed
Experimental: In the present Example, the stabilities of the oily lubiprostone (prepared according to Example 1) and the final products of Example 1 and Example 2 (crystal samples) were tested, and the results of the tests were compared. Oily lubiprostone, the sample of Example 1, and the sample of Example 2 were separately sealed and placed at 40° C. for 7 days. After completion, the amount of the impurities was analyzed.

| Compound | Initial Product Amount | Product Amount (after 7 days at 40° C.) | stability (conclusion in words) (based on the data of Table 2 (sealed, 40° C., 7 days)) |
| --- | --- | --- | --- |
| CCCCC(F)(F)[C@@]1(O)CCC2[C@@H](CC(=O)[C@@H]2CCCCCCC(=O)O)O1 (single isomer, unassigned; (-)) [Example 1] | 100.0% | 99.9% | – |
| CCCCC(F)(F)[C@@]1(O)CCC2[C@@H](CC(=O)[C@@H]2CCCCCCC(=O)O)O1 (single isomer, unassigned; (-)) [Example 2] | 100.0% | 99.9% | – |
| CCCCC(F)(F)[C@@]1(O)CCC2[C@@H](CC(=O)[C@@H]2CCCCCCC(=O)O)O1 (single isomer, unassigned; (-)) [Oily lubiprostone, reference compound] | 99.9% | 95.8% | – |
| CCCCC(F)(F)[C@@]1(O)CCC2[C@@H](CC(=O)[C@@H]2CCCCCCC(=O)O)O1 (single isomer, unassigned; (-)) [lubiprostone crystal] | – | – | excellent stability |
